The source made the active and inactive calls. No cut-off for these calls is given here.
How the values were obtained:
[1] = system: NCI-H1975; assay: Growth inhibition of human NCI-H1975 cells at 0.041 to 10 ug/ml after 72 hrs by MTT assay; assay type: functional, cell-based
[2] = system: SW480; assay: Growth inhibition of human SW480 cells overexpressing FAS gene after 72 hrs by MTT assay; assay type: functional, cell-based; conditions: SW480, 72 h
[3] = system: MDA-MB-468; assay: Growth inhibition of human MDA-MB-468 cells overexpressing FAS gene after 72 hrs by MTT assay; assay type: functional, cell-based; conditions: MDA-MB-468, 72 h
[4] = target: Fatty acid synthase (Gallus gallus, UniProt P12276); assay: Inhibition of chicken FAS by spectrophotometric analysis
Chain of Fatty acid synthase (P12276 whole entry): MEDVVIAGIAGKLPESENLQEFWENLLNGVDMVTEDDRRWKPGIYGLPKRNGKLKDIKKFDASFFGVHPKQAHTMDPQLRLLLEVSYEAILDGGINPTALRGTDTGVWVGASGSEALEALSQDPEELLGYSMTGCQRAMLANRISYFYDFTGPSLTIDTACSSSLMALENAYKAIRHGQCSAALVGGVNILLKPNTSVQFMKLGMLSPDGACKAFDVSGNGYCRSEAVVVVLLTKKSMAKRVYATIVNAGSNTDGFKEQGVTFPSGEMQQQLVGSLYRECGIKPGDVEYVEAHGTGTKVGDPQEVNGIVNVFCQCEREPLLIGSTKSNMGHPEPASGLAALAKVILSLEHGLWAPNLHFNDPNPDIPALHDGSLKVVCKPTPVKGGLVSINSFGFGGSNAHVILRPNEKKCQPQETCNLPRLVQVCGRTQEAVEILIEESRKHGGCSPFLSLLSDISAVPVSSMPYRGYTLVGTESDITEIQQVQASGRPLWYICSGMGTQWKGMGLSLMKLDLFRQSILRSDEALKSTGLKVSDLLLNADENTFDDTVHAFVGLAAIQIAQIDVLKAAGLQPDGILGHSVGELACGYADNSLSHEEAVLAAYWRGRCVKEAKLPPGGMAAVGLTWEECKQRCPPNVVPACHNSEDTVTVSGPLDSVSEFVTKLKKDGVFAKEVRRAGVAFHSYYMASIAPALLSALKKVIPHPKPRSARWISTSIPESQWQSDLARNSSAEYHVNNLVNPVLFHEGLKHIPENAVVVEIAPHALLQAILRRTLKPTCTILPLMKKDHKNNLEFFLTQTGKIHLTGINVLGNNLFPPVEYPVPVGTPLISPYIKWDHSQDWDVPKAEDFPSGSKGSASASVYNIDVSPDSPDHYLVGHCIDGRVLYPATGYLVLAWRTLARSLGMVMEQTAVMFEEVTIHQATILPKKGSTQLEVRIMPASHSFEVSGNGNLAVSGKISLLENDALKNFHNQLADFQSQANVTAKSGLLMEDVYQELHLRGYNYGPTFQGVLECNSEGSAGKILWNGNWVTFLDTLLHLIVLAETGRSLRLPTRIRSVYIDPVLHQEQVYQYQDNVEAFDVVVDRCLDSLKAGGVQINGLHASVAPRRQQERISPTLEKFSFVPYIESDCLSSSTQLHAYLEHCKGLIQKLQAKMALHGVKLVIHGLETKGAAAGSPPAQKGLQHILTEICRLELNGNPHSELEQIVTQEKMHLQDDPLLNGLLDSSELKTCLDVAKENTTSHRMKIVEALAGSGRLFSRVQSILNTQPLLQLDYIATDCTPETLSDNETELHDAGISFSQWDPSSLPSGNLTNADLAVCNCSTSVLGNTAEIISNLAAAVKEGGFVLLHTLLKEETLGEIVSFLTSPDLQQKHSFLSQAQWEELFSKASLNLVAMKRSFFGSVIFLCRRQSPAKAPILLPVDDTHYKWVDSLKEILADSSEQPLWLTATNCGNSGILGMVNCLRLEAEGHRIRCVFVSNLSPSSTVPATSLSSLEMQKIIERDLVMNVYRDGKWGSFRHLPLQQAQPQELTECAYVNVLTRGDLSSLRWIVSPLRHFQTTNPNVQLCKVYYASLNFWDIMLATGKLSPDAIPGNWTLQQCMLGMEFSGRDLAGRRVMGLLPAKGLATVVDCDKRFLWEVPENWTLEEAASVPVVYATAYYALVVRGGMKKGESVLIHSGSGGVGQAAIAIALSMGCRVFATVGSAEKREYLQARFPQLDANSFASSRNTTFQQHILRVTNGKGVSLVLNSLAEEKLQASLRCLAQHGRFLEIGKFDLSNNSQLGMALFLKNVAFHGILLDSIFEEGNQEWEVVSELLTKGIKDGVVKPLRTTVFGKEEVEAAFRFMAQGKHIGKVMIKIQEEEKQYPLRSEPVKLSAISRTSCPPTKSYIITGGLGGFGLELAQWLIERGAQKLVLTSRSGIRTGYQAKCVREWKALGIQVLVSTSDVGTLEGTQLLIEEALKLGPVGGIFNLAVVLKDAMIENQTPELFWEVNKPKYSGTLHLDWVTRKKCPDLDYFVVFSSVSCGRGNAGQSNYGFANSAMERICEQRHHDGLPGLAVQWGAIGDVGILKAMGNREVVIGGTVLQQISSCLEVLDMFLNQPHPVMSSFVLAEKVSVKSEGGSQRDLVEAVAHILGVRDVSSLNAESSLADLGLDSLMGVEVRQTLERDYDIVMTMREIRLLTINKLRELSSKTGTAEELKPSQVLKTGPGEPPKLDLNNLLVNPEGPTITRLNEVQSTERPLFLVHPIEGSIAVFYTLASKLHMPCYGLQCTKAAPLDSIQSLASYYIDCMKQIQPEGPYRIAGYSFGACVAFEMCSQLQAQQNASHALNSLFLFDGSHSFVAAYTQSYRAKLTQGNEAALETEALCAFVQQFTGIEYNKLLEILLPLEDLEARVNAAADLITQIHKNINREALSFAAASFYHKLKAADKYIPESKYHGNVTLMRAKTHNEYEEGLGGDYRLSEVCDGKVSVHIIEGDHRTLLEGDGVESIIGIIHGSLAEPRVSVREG

Row | IC50 [2] [µM] | IC50 [3] [µM] | IC50 [4] [µM] | SMILES | inhibition [1]
1 | 14.7 |  |  | CCn1c(SCC(=O)Nc2cc(Cl)ccc2Cl)nnc1C(C)(C)NC(=O)c1cccc(C)c1 | inactive
2 | 19.9 |  |  | CC1=C(C(=O)Nc2ccccc2)[C@@H](c2ccc(OCc3ccccc3)cc2)n2ncnc2N1 | inactive
3 |  | 8.4 |  | CC1=C(C(=O)Nc2ccccn2)C(c2ccc(Br)cc2)NC(S)=N1 (configuration not stated) | inactive

Second part, the compound before the results:

Row | SMILES | IC50 [2] [µM] | IC50 [3] [µM] | IC50 [4] [µM] | inhibition [1]
4 | CC1=NC2N=NNN2[C@@H](c2ccc(OCc3ccccc3)cc2)C1C(=O)Nc1ccccc1 (some centres not stated) | 11.1 | 19.3 |  | inactive
5 | COc1cc(OC)c([C@H]2NC(=S)NC(C)=C2C(=O)Nc2ccccc2Cl)cc1OC | 7.5 |  |  | inactive
6 | O=[N+]([O-])c1cccc(-c2csc(N/N=C\c3ccccn3)n2)c1 | 1.5 | 8.3 | 12.7 | inactive
7 | CC1=C(C(=O)Nc2ccc(Cl)cc2)C(c2cc(Br)ccc2O)NC(=S)N1 (configuration not stated) | 14.2 |  |  | inactive

— ChEMBL document CHEMBL1806412, “Discovery of novel fatty acid synthase (FAS) inhibitors based on the structure of ketoaceyl synthase (KS) domain” (Bioorg Med Chem Lett, 2011)
